These results are taken from patent US20180185313A1, “COMPOSITION COMPRISING AMINO ACID AND CYCLIC DIPEPTIDE” (SUNTORY HOLDINGS LIMITED, priority 2015, published 2018).

The target in assay [1] is T1, angiotensin-converting enzyme (Homo sapiens, UniProt P12821).
T1 construct: purchased Dojindo Laboratories ACE Kit-WST
Description: Angiotensin I-converting enzyme-inhibiting activity by ACE Kit-WST (Dojindo Laboratories), residual activity. The class given is biochemical. Conditions: for angiotensin-converting enzyme-inhibiting action brought about by the amino acid on addition of the cyclic dipeptide: cyclic dipeptide added in a given amount to the amino acid, summary of Tables 1 to 4. The procedure: The enhancing effect of a cyclic dipeptide on the angiotensin-converting enzyme-inhibiting action of an amino acid was evaluated. Specifically, as for the inhibiting effects of amino acids and cyclic dipeptides, angiotensin I-converting enzyme-inhibiting activities were measured by using ACE Kit-WST (Dojindo Laboratories) according to the instruction manual attached to the kit. The amino acids were studied at a concentration of 1000 μM, 3000 μM, or 5000 μM, and the cyclic dipeptides were studied at a concentration of 20 μM, 50 μM, 100 μM, 250 μM, or 500 μM. Their-inhibiting activities were evaluated as the residual activity of angiotensin-converting enzyme calculated according to expression 1 given below. A control supplemented with distilled water instead of the aqueous cyclic dipeptide solution was used. Chemically synthesized samples were used as the cyclic dipeptides.
Residual activity (%)=(Absorbance at 450 nm from the cyclic dipeptide-added group/Absorbance from 450 nm from the control)×100 (Expression 1)

The test system of assay [2] is spontaneously hypertensive rats. Conditions: oral administration; cited from earlier work.
Where [3] appears, read: amino acid alone, no cyclic dipeptide.

T1 sequence (P12821 30-1306, species assumed): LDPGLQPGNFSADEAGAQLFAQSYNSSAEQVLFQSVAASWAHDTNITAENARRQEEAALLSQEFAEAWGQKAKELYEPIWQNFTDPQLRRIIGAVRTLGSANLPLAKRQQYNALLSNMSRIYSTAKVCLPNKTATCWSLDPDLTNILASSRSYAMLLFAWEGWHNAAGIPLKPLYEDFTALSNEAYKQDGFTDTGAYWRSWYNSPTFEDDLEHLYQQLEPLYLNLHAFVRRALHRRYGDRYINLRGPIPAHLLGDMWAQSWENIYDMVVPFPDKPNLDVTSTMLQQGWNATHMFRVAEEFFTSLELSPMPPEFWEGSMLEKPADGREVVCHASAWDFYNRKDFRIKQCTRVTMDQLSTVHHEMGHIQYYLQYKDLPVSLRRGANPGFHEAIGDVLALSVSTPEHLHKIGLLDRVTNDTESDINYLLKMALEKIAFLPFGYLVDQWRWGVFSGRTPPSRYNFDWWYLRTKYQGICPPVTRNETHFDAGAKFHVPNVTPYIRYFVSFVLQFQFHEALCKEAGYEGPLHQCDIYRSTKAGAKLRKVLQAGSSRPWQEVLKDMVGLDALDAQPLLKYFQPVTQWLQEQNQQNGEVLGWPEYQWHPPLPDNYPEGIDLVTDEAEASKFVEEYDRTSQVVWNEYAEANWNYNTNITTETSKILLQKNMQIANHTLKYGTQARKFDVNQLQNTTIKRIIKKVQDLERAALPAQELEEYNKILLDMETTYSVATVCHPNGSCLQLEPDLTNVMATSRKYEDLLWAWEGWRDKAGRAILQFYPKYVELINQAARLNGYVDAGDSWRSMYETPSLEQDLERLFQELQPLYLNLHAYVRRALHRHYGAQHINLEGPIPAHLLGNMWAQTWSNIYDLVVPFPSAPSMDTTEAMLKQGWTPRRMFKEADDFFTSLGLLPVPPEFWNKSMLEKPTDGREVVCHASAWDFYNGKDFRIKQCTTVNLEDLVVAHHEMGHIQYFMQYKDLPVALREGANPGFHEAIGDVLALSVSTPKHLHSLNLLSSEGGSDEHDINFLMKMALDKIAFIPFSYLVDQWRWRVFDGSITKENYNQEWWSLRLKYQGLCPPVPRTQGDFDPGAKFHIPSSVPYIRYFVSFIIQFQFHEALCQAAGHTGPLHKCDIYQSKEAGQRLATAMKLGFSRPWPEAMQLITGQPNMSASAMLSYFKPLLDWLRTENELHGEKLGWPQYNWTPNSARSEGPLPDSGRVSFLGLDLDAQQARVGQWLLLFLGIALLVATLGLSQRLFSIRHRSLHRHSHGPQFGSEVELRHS

With `N[C@@H](Cc1ccc(O)cc1)C(=O)O` [Tyrosine, tyrosine], in assay [1] (setting [3]), the remaining activity – broadly, the share of the control activity or signal that is left under treatment – at 1000 µM turned out to be 94%. In assay [1] (amino acid alone, 3000 μM, no cyclic dipeptide), this molecule displayed a remaining activity at 3000 µM of 90.6%.

Regarding “cyclo-glutamyl-histidine [Cyclo(Glu-His)]”, the “angiotensin-converting enzyme-inhibiting action brought about by the amino acid on addition of the cyclic dipeptide” value in assay [1] is “enhanced”.

As for `CC(C)C[C@H](N)C(=O)O` [Leucine, leucine], in assay [1] (setting [3]), the remaining activity at 1000 µM turned out to be 83.2% and the remaining activity at 5000 µM is 43.3%.

In assay [1] (setting [3]), `N=C(N)NCCC[C@H](N)C(=O)O` [Arginine, arginine] had a remaining activity at 1000 µM of 84.8% and a remaining activity at 5000 µM of 60.2%.

In the case of `C[C@@H](O)[C@H](N)C(=O)O` [Threonine, threonine], in assay [1] (setting [3]), the remaining activity at 1000 µM was 86.6% and the remaining activity at 5000 µM was found to be 69%.

With cyclo-isoleucyl-serine [Cyclo(Ile-Ser)], in assay [1], the “angiotensin-converting enzyme-inhibiting action brought about by the amino acid on addition of the cyclic dipeptide” value is recorded as “enhanced”.

As to `N[C@@H](Cc1c[nH]cn1)C(=O)O` [histidine], the mean arterial pressure entry in assay [2] is recorded as “decrease”.

Turning to cyclo-arginyl-tyrosine [Cyclo(Arg-Tyr)], in assay [1], the “angiotensin-converting enzyme-inhibiting action brought about by the amino acid on addition of the cyclic dipeptide” value is “enhanced”.
